Key:
[1] = system: Factor Xa; assay: Generation of Factor Xa by monocytes (THP-1 cells); format: cell-based; details: 0.5 mM; for reduction of Factor Xa production: 20 min
Procedure: Factor Xa generation was determined by a modification of the method of Miletich et al. (1978), J. Biol. Chem. 253: 6908-6916. THP-1 cells (ATCC; 3×10^7 /ml) resuspended in RPMI 1640 (Bio Whittaker, Walkersville, Md.) were incubated with 100 μM ADP (Sigma), 2.5 mM CaCl2, 1 or 5 μg/ml Factor X (Hematologic Technologies Inc.) and 0.5 mM peptides at room temperature. After 20 minutes, 100 μl of the reaction mixture was transferred to 37° C. and supplemented with 100 μl of bovine factor VII- and Factor X-deficient plasma (Sigma). Coagulation was initiated by adding 100 μl of 25 mM CaCl2 and the clotting time was determined. Factor Xa procoagulant activity (ng/ml) was calculated by means of a standard curve constructed by serial concentrations of Factor Xa (Hematologic Technologies Inc.) from 50 to 250 ng/ml.

[2] = system: C3bi; assay: Inhibition of binding of 12.1F9 to E-C3bi by peptides; parameters: species or system human; details: for block of binding of 12.1F9 to C3bi: e-c3bi on antibody-coated wells
Text: The antibody 12.1F9 maps to the region 1279-2011 of FHA. When the derived amino acid sequence of this region was compared to that of C3, a region of 11 amino acids with similar sequence was found between FHA residues 1408-1418 and C3 residues 1187-1197 (Table 14). […] However, the FHA-20-mer and the homologous C3-derived peptide blocked binding by up to 60%.

[3] = system: neutrophils; assay: Transendothelial migration of neutrophils; format: cell-based, human; details: peptides 0.01 mM
Procedure: Transendothelial migration of neutrophils was studied based on a method described by Muller et al. (1992), J. Exp. Med. 176: 819-828. Briefly, human neutrophils suspended in ice-cold Hanks balanced salt solution (HBSS) containing Ca^++ and Mg^++ (Sigma) were fluoresceinated by adding 3.3 μl/ml 5-(and 6-)carboxyfluorescein diacetate, succinimidyl ester (CFSE, Molecular Probes Inc., Oreg.). After incubation for 30 mins. on ice, neutrophils were washed twice in cold HBSS with Ca^++ and Mg^++ and resuspended in cold Medium 199 (M199, Sigma) to a final concentration of 10^6 /ml. Human umbilical vein endothelial cells were subcultured at confluence into 96-well tissue culture plates (Becton Dickinson Labware, Lincoln Park, N.J.) that were coated with hydrated collagen gel (Vitrogen; Collagen Corporation, Palo Alto, Calif.) and fibronectin. Endothelial cells were stimulated with 10 ng/ml TNF-alpha for 4 hours and washed three times with warm M199. Neutrophils (10^6 /ml) were preincubated with 0.01 mM of peptides or with 1 μM of native FHA in M199 for 5 mins. on ice before they were added in 100 μl aliquots to the endothelial cells. For positive control, neutrophils were pre-incubated with 25 μg/ml anti-CD18 mAb IB4. For negative control, neutrophils were treated with 25 μg/ml mAb W6/32 against HLA class I antigen (Dako, Carpinteria, Calif.). The cells were incubated for 1 hour at 37° C., 5% CO2. To terminate transmigration, the supernatant fluid was aspirated and the wells were filled with warm 1 mM EGTA (Sigma) in HBSS without Ca and Mg. The plates were covered with plate sealers (Dynatech, Alexandria, Va.) and centrifuged in an inverted position at 250 g for 3 mins. at room temperature. To remove residual non-transmigrated neutrophils from the endothelial cells, monolayers were washed twice with 200 μl of warm Hanks solution without Ca and Mg. Fluorescence was quantitated using a fluorescence counter (Millipore Cytofluor™ 2300). The percentage of transmigrated neutrophils was determined by comparing the amount of fluorescence of test wells with that measured in collagen- and fibronectin-coated wells without endothelial cells. […] Percent inhibition of transendothelial migration of neutrophils was calculated by comparing the number of transmigrated cells in wells containing neutrophils treated with peptide to neutrophils treated with M199 alone and arbitrarily set at 100% transendothelial migration (TEM).
(§1) The procedures for determining the neutrophil adherence to cultured endothelial cells and the transendothelial migration of neutrophils were identical with those of Example 9. Control values were the same as those shown in Example 9.

[4] = system: leukocytes in CSF; assay: Rabbit meningitis model: leukocyte migration into CSF; format: in vivo; details: for mean leukocyte concentration in CSF: peptides 10 μM i.v.; for reduction of CSF leukocytosis: peptides 10 μM, FHA 0.1 μM
Procedure: (§2) The rabbit model was performed according to an established protocol. Specific pathogen free, New Zealand white rabbits (2 kg; Hare Marland, Nutley, N.J.) were anesthetized with valium (2.5 mg/kg, subcutaneously, Hoffman-LaRoche, Nutley, N.J.), ketamine (35 mg/kg, intramuscularly, Aveco, Fort Dodge, Iowa) and xylazine (5 mg/kg, intramuscularly, Miles Laboratories, Shawnee, Kans.) and a helmet of dental acrylic was affixed to the calvarium. Twenty four hours later, the rabbits were anesthetized with ethyl carbamate (1.75 g/kg; Aldrich Chemical Co., Milwaukee, Wis.) and pentobarbital (15 mg/kg; Abbott Laboratories, Abbott Park, Ill.) and placed in a stereotaxic frame. A spinal needle was introduced into the cisterna magna and 300 μl of CSF was withdrawn. The animals were challenged intracisternally with 10^8 heat killed, unencapsulated pneumococcus strain R6 introduced in 200 μl of saline (time 0). One hour later, animals were treated with peptides dissolved in 1 ml of saline by intravenous injection into the right marginal ear vein. The concentration of FHA was 0.1 μM and that of the FHA Ia, Factor X II, and scrambled FHA II peptides was 10 μM. For the acetyl-FHA II, acetyl/amide-FHA II, dimer of FHA II and trimer of FHA II peptides, the concentration was 10^-3 μM. The concentration of FHA II is given in the results section. Samples of CSF were withdrawn at hourly intervals after pneumococcal inoculation and leukocyte density was measured using a cell counter (Coulter Electronics Inc., Hialeah, Fla.). CSF samples were centrifuged at 10,000×g for 5 minutes and the supernatant was stored at -70° C. until assayed for protein concentration using the bicinchoninic acid method (BCA Kit, Pierce Chemical Co., Rockford, Ill.) and for lactate concentration (Lactate Detection Kit, Sigma, St. Louis, Mo.). Statistically significant differences between treatments were determined by a one way analysis of variance test.
The anti-inflammatory effects of the administered peptides were assessed in the rabbit model for meningitis by the procedures described in Example 10. The animals received 1 ml of 1 uM peptide intravenously. In a slight departure from the protocol described in Example 10, samples of blood were drawn from the left marginal ear vein 30 minutes after the administration of the peptides to determine peripheral leukocyte concentrations.

[5] = system: blood brain barrier; assay: Rabbit meningitis model: CSF protein and lactate (blood brain barrier permeability); format: in vivo; details: 10 μM peptides, 0.1 μM FHA
Procedure: as §2
Loss of barrier function of the cerebral capillary endothelium during inflammation is reflected by an influx of serum proteins into the CSF. […] To examine if the peptides were able to ameliorate these measures of cerebral injury, CSF protein and lactate concentrations were measured hourly in peptide-treated and control animals (Table 10).
Leukocyte migration into the CSF in bacterial meningitis is associated with loss of barrier function of the cerebral capillary endothelium, resulting in influx of serum proteins into the CSF. To determine whether FHA peptides were able to prevent this leukocyte-dependent injury, protein concentrations in the CSF were measured throughout the course of inflammation in peptide-treated and control animals.

[6] = system: endothelial cells; assay: Cooperative inhibition of neutrophil adherence by peptide plus antibody; format: cell-based, human; details: for additive reduction of neutrophil adherence: together with IB4 (50 μg/ml)
Procedure: (§3) Human umbilical vein endothelial cells (HUVEC, first passage, Clonetics, San Diego, Calif.) were subcultured at confluence into Terasaki tissue culture wells. After 24 hours, confluent monolayers were used for adherence assays. Monolayers were stimulated with 10 ng/ml TNF alpha (Boehringer Mannheim, Indianapolis, Ind.) at 37° C. for four hours. 30 μl of human neutrophils (10^6 /ml) were labeled with fluorescein by the method of Lo et al. (1991), J. Exp. Med. 173 1493-1500, and preincubated for 15 minutes at 37° C. with 20 μl of peptides (0.5 mM in HAP) or HAP (phosphate buffered saline containing 0.5 mg/ml human serum albumin, 3 mM glucose, and 0.3 U/ml aprotinin) as a control buffer. For some experiments, endothelial cells were pretreated from 10 minutes with Factor X or antibodies against Factor X receptor (EPR-1; Altieri et al. (1990), J. Immunol. 145, 246-253) 12H1 and 9D4 (obtained from Dr. D. Altieri, Scripps Research Institute, Lajolla, Calif.) and then washed. Neutrophils were allowed to adhere to the monolayer for 15 mins. at 37° C. and unbound cells were removed by submersion of the plate in PBS buffer. The number of adherent neutrophils was counted in a 40× microscope field and expressed as a percentage of adherence in control wells with neutrophils treated with HAP buffer alone. The mAb IB4 against CD18 (50 μg/ml; Merck Inc., Rahway, N.J.) served as a positive control.
The ability of FHA peptides and anti-CD18 or anti-Factor X receptor antibodies to interact cooperatively to inhibit neutrophil adherence to endothelial cells was assessed by measuring neutrophil adherence to endothelial cells in the presence of antibody as well as antibody plus peptide. Anti-CD18 mAb IB4 was added to leukocytes at 10 μg/ml 10 min before the assay. Anti-Factor X receptor mAb 12H1 (10 μl of ascites) or 9D4 (10 μg/ml) were added to the endothelial cell monolayers 10 min before the assay. The peptides were added at 5 μg/ml. The results are shown in Table 8 where the numerical values are in % of control binding.

[7] = system: human umbilical vein endothelial cells; assay: Adherence of neutrophils to cultured (TNF-stimulated) endothelial cells; format: cell-based; details: peptides 0.5 mM
Procedure: as §3, §1

[8] = peptide 5 μg/ml plus 9D4 10 μg/ml
[9] = peptide 5 μg/ml plus 12H1 10 μl of ascites
[10] = peptide 5 μg/ml plus IB4 10 μg/ml

## GLYQAKRFKVG [Factor X I, reference compound]
[1]
  Factor Xa generation (in words): substantial reduction that did not reach statistical significance

## VTVGRGDPHQG [FHA RGD]
[2]; peptides 50 μg/ml, normalized to a control value of 100
  Adherence index: 85 ± 9

## IDRSMKTRG [Factor X III, reference compound]
[1]
  Factor Xa generation (in words): substantial reduction that did not reach statistical significance
[3]
  % Inhibition of TEM: 5 ± 7%

## GYDTKQEDG [Factor X II, reference compound]
[1]
  reduction of Factor Xa production: > 90%
[4]; 7 hours
  mean leukocyte concentration in CSF: 1622±521 /μl CSF
[4]
  reduction of CSF leukocytosis: > 60%
[5]
  protein influx into CSF and lactate generation (in words): no significant reduction

## ETKEVDG [FHA II]
[1]
  Factor Xa generation (in words): did not interfere with the generation of Factor Xa procoagulant activity
[4]; 10^-3 μM i.v.
  anti-inflammatory effect (in words): ineffective
[4]; 7 hours
  mean leukocyte concentration in CSF: 2645±1412 /μl CSF
[4]; 7 hours, 10^-1 μM
  leukocyte density vs control (in words): statistically significantly different from control
[4]
  reduction of CSF leukocytosis: > 60%
[6]; [8]
  % of control binding: 45 ± 9 % of control binding
[6]; [9]
  % of control binding: 67 ± 13 % of control binding
[6]; [10]
  % of control binding: 11 ± 6 % of control binding
[6]; peptide 5 μg/ml, no antibody
  % of control binding: 40 ± 23 % of control binding
[6]
  additive reduction of neutrophil adherence: > 80±10%
[5]
  protein influx into CSF and lactate generation (in words): significantly reduced protein influx into the CSF and generation of lactate

## GRTRG [FHA III]
[1]
  reduction of Factor Xa production: 74%
[7]
  interference with neutrophil adherence (in words): less effective than the corresponding Factor X derived peptide
[3]
  % Inhibition of TEM: 5 ± 6%

## LGYQAK [FHA Ia]
[7]
  interference with neutrophil adherence (in words): significantly more active than the Factor X peptide I
[4]; 7 hours
  mean leukocyte concentration in CSF: 1640±1210 /μl CSF
[4]
  reduction of CSF leukocytosis: > 60%
[6]; [8]
  % of control binding: 63 ± 17 % of control binding
[6]; [9]
  % of control binding: 64 ± 12 % of control binding
[6]; [10]
  % of control binding: 20 ± 7 % of control binding
[6]; peptide 5 μg/ml, no antibody
  % of control binding: 63 ± 12 % of control binding
[6]
  additive reduction of neutrophil adherence: > 80±10%
[5]
  protein influx into CSF and lactate generation (in words): no significant reduction

## DEETVK [scrambled FHA II, reference compound]
[7]
  interference with neutrophil adherence (in words): did not interfere with neutrophil binding
[4]; 7 hours
  mean leukocyte concentration in CSF: 6431±1380 /μl CSF
[3]
  % Inhibition of TEM: 4 ± 5%

## YTVSADAIALA (YTVAIAGYALA) [FHA 1408-1418]
[2]
  block of binding of 12.1F9 to C3bi: up to 60%

## YTVAIAGYALA [C3-pep 1187-1197]
[2]
  block of binding of 12.1F9 to C3bi: up to 60%

## GLIQGRSVKVD [FHA Ib]
[1]
  reduction of Factor Xa production: 81%
[3]
  % Inhibition of TEM: 7 ± 10%

From US6015560A, “Antibody recognizing endothelial cell ligand for leukocyte CR3” (priority 1995, dated 2000)
